Test results reported in US4740498A, “Fibronectin preparations” (Green Cross Corporation, priority 1984, dated 1988).

Test system: corneal epithelium of rabbits
Assay: Therapeutic effect in model of corneal disturbance (refrigeration trauma on the corneal epithelium)
Assay type: in vivo
Settings: 400 μg/ml into the eyes, FN = eye drops of Example 2, albumin = control
Procedure: The therapeutic effect of the FN preparations of the present invention was examined using a model of corneal disturbance in rabbits. The model was prepared by applying liquid nitrogen to the eyes of rabbits to cause refrigeration trauma on the corneal epithelium. The FN eye drops prepared in Example 2 were administered into the eyes thus suffering from corneal disturbance at a dose of 400 μg-FN/ml, and the wound surface area was measured with the passage of time. As a control, 400 μg/ml of albumin was used.

Albumin
Wound Surface Area, 0 Day (0 Day): 45 mm^2 | Wound Surface Area, 1 Day (1 Day): 31 mm^2 | Wound Surface Area, 2 Days (2 Days): 33 mm^2 | Wound Surface Area, 3 Days (3 Days): 25 mm^2 | Wound Surface Area, 4 Days (4 Days): 14 mm^2
